Tested on: Panc-1 cell line
Experiment: Gene expression profile using RTQ-PCR
Format: cell-based
Conditions: Panc1, RTQ-PCR
Method: The objective of the experiment was to evaluate the synergistic effect of drug combination (Gemcitabine with […]) as compared to individual use of the same. The synergistic effect of the compound or drug combination in the Panc-1 cell line was measured in terms of gene expression and expressed as fold changes as compared to the cell control with no drug treatment. Methodology: Cell lines treated with drugs (Gemcitabine, […] or both) were used for total RNA isolation using a commercial RNA extraction kit (Qiagen Corporation, Germany). […] This was followed by real time quantitative polymerase chain reaction (RTQ PCR) using gene specific primers and standard thermal program of initial denaturation at 95° C. for 5 mins and 40 cycles of 95° C. for 10 seconds, followed by […] for 30 seconds (Realplex PCR machine from Eppendorf, Germany). Quantitative measurement of products made during PCR cycles was normalized against a housekeeping gene (Actin) and used to measure the gene expression as fold changes as compared to respective control (FIG. 5).

Compound | DLG5 gene expression vs control cells with no drug treatment [log 2 fold ratio] | E2F1 gene expression vs control cells with no drug treatment [log 2 fold ratio] | MAPK1 gene expression vs control cells with no drug treatment [log 2 fold ratio] | PDCD2 gene expression vs control cells with no drug treatment [log 2 fold ratio] | POLB gene expression vs control cells with no drug treatment [log 2 fold ratio] | PTK7 gene expression vs control cells with no drug treatment [log 2 fold ratio] | PTN gene expression vs control cells with no drug treatment [log 2 fold ratio] | RASA1 gene expression vs control cells with no drug treatment [log 2 fold ratio] | REV3L gene expression vs control cells with no drug treatment [log 2 fold ratio] | SSTR2 gene expression vs control cells with no drug treatment [log 2 fold ratio] | STAT4 gene expression vs control cells with no drug treatment [log 2 fold ratio] | CDK2 gene expression vs control cells with no drug treatment [log 2 fold ratio] | CDK4 gene expression vs control cells with no drug treatment [log 2 fold ratio] | CDK6 gene expression vs control cells with no drug treatment [log 2 fold ratio] | CDK8 gene expression vs control cells with no drug treatment [log 2 fold ratio] | DDIT4 gene expression vs control cells with no drug treatment [log 2 fold ratio] | RRM1 gene expression vs control cells with no drug treatment [log 2 fold ratio] | p14 gene expression vs control cells with no drug treatment [log 2 fold ratio] | p18 gene expression vs control cells with no drug treatment [log 2 fold ratio] | p27 gene expression vs control cells with no drug treatment [log 2 fold ratio] | also measured
Nc1ccn([C@@H]2O[C@H](CO)[C@@H](O)C2(F)F)c(=O)n1 [drawing 1] | −0.53 | 0.98 | −0.18 | −1.27 | −0.94 | −0.53 | 0.68 | −0.04 | −0.28 | −1.17 | −0.54 |  |  |  |  |  |  |  |  |  | 
CN1CC[C@@H](c2c(O)cc(O)c3c(=O)cc(-c4ccccc4Cl)oc23)[C@@H]1CO.Cl |  |  |  |  |  |  |  |  |  |  |  | −0.21 | −0.44 | −0.23 | 0.11 | −1.88 | 0.18 | −0.50 | −0.17 | −0.60 | RRM2 gene expression vs control cells with no drug treatment: 0.16 log 2 fold ratio
CN1CC[C@@H](c2c(O)cc(O)c3c(=O)cc(-c4ccc(C(F)(F)F)cc4Cl)oc23)[C@@H]1CO.Cl [drawing 3] | −1.01 | −0.43 | 0.64 | 0.77 | −0.05 | 0.30 | 0.40 | 0.10 | −0.13 | −0.69 | −1.52 |  |  |  |  |  |  |  |  |  | 
CN1CCC(c2c(O)cc(O)c3c(=O)cc(-c4ccccc4Cl)oc23)C(O)C1 (stereo not drawn) [drawing 14] |  |  |  |  |  |  |  |  |  |  |  | 0.74 | 0.49 | 1.31 | −0.99 | −4.21 | 0.03 | −0.10 | −1.14 | −0.01 | RRM2 gene expression vs control cells with no drug treatment: 0.38 log 2 fold ratio
CC[C@H](CO)Nc1nc(NCc2ccccc2)c2ncn(C(C)C)c2n1 [drawing 2] | −0.71 | 0.03 | −0.29 | −0.05 | −0.26 | 0.11 | −0.28 | −0.41 | −0.27 | −0.37 | −1.66 |  |  |  |  |  |  |  |  |  | 
CN1CC[C@@H](c2c(O)cc(O)c3c(=O)cc(-c4ccc(C(F)(F)F)cc4Cl)oc23)[C@@H]1CO.Cl [drawing 12] |  |  |  |  |  |  |  |  |  |  |  | 0.96 | 0.73 | 1.48 | 0.20 | −0.31 | −0.24 | −0.59 | −0.12 | −0.30 | RRM2 gene expression vs control cells with no drug treatment: 0.04 log 2 fold ratio
Nc1ccn([C@@H]2O[C@H](CO)[C@@H](O)C2(F)F)c(=O)n1 [drawing 10] |  |  |  |  |  |  |  |  |  |  |  | 0.50 | −0.93 | −0.53 | 0.86 | 1.01 | 0.25 | −0.17 | 1.06 | −0.16 | 
CC[C@H](CO)Nc1nc(NCc2ccccc2)c2ncn(C(C)C)c2n1 [drawing 11] |  |  |  |  |  |  |  |  |  |  |  | 0.29 | −0.06 | 0.75 | 0.82 | −0.84 | 0.11 | −0.05 | 0.56 | −0.04 | RRM2 gene expression vs control cells with no drug treatment: 0.63 log 2 fold ratio
CN1CCC(c2c(O)cc(O)c3c(=O)cc(-c4ccccc4Cl)oc23)C(O)C1 (stereo not drawn) [drawing 5] | −1.19 | −0.62 | −2.31 | 0.50 | 0.34 | 0.16 | −0.24 | −1.10 | −1.42 | −2.98 | −1.39 |  |  |  |  |  |  |  |  |  | 
